Test results published in ChEMBL document CHEMBL1201862, “PubChem BioAssay data set” (2004).
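Dose response: 5 concentrations. Exposure: 48 h. Format: 96-well plates. Endpoint: linear interpolation; highest concentration if not reached. Abbreviation: GI50, concentration required for 50% inhibition of growth.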 Active and inactive are the calls of the source. No stated cut-off is given here; in the data, active = GI50 up to about 1.1 µM and inactive = higher.

What was measured:
Assay in all cases: inhibition of tumour cell growth, NCI panel, 48 h
786-0 = system: 786-0
SK-MEL-28 = system: SK-MEL-28
IGROV-1 = system: IGROV-1
NCI-H460 = system: NCI-H460
UO-31 = system: UO-31
SN12C = system: SN12C
DLD-1 = system: DLD-1
ACHN = system: ACHN
NCI-H522 = system: NCI-H522
SF-268 = system: SF-268
HT-29 = system: HT-29
SR = system: SR
OVCAR-3 = system: OVCAR-3
SK-MEL-5 = system: SK-MEL-5
SW-620 = system: SW-620
RXF 393 = system: RXF 393
OVCAR-8 = system: OVCAR-8
Hs-578T = system: Hs-578T
PC-3 = system: PC-3
MDA-N = system: MDA-N

Measured: GI50

O=C1CCCCC1S(=O)(=O)c1ccccc1 (stereo not drawn)
inactive: 786-0 > 100 µM | SK-MEL-28 > 100 µM | IGROV-1 > 100 µM | NCI-H460 > 100 µM | UO-31 > 100 µM | SN12C > 100 µM | DLD-1 > 100 µM | ACHN > 100 µM | NCI-H522 > 100 µM | SF-268 > 100 µM | HT-29 > 100 µM | SR > 100 µM | OVCAR-3 > 100 µM | SK-MEL-5 > 100 µM | SW-620 > 100 µM | RXF 393 > 100 µM | OVCAR-8 > 100 µM

COc1cccc2c1C1(O)C2CCCCCCCCCC12OCCCO2 (stereo not drawn)
inactive: 786-0 32.7 µM | SK-MEL-28 > 100 µM | IGROV-1 41.3 µM | Hs-578T > 100 µM | NCI-H460 6.25 µM | UO-31 > 43.3 µM | SN12C > 49.7 µM | DLD-1 6.64 µM | ACHN > 35.2 µM | NCI-H522 > 50.2 µM | SF-268 9.82 µM | HT-29 10.8 µM | SR 3 µM | PC-3 6.44 µM | OVCAR-3 > 40.2 µM | SK-MEL-5 21.6 µM | SW-620 > 46.7 µM | RXF 393 > 100 µM | OVCAR-8 > 41.8 µM | MDA-N 35.2 µM

O=C1[C@H]2ON(c3ccccc3)C(c3ccc(Cl)cc3Cl)[C@H]2C(=O)N1c1ccc(Cc2ccc(N3C(=O)[C@@H]4ON(c5ccccc5)C(c5ccc(Cl)cc5Cl)[C@@H]4C3=O)cc2)cc1 (stereo partly drawn)
inactive: 786-0 > 100 µM | SK-MEL-28 > 100 µM | IGROV-1 > 100 µM | NCI-H460 > 100 µM | UO-31 > 100 µM | SN12C > 100 µM | DLD-1 > 100 µM | ACHN > 100 µM | NCI-H522 > 100 µM | SF-268 > 100 µM | HT-29 > 100 µM | SR 44.1 µM | OVCAR-3 > 100 µM | SK-MEL-5 73.1 µM | SW-620 > 100 µM | OVCAR-8 > 100 µM

CCCCCCCCCCSC(=O)NC
inactive: 786-0 35.2 µM | SK-MEL-28 26.3 µM | IGROV-1 79.8 µM | NCI-H460 33.3 µM | UO-31 23.4 µM | SN12C 25.7 µM | DLD-1 36.9 µM | ACHN 40.4 µM | NCI-H522 21.3 µM | SF-268 31.8 µM | HT-29 29.7 µM | OVCAR-3 54.2 µM | SK-MEL-5 20.5 µM | SW-620 39.6 µM | RXF 393 19.9 µM | OVCAR-8 28 µM

COC(=O)C(C(=O)C(=O)Nc1ccc(OC)cc1[N+](=O)[O-])c1nc2cc(C)c(C)cc2nc1O (stereo not drawn)
inactive: 786-0 > 100 µM | SK-MEL-28 > 100 µM | IGROV-1 > 100 µM | NCI-H460 > 100 µM | UO-31 > 100 µM | SN12C > 100 µM | DLD-1 > 100 µM | ACHN > 100 µM | NCI-H522 > 100 µM | SF-268 > 100 µM | HT-29 > 100 µM | SR > 100 µM | OVCAR-3 > 100 µM | SK-MEL-5 > 100 µM | SW-620 > 100 µM | RXF 393 > 100 µM | OVCAR-8 > 100 µM

O=C(c1ccc(Cl)cc1)c1ccc(OCCCOc2ccc(C(=O)c3ccc(Cl)cc3)cc2Cl)c(Cl)c1
inactive: 786-0 > 100 µM | SK-MEL-28 > 100 µM | IGROV-1 > 100 µM | NCI-H460 > 100 µM | SN12C > 100 µM | DLD-1 > 100 µM | ACHN > 100 µM | NCI-H522 > 100 µM | HT-29 > 100 µM | SR > 100 µM | OVCAR-3 > 100 µM | SK-MEL-5 > 100 µM | SW-620 > 100 µM | RXF 393 > 100 µM | OVCAR-8 > 100 µM

CC(=O)COC(=O)CC(C)=O
inactive: 786-0 > 100 µM | SK-MEL-28 > 100 µM | IGROV-1 > 100 µM | NCI-H460 > 100 µM | UO-31 > 100 µM | SN12C > 100 µM | DLD-1 > 100 µM | ACHN > 100 µM | NCI-H522 > 100 µM | SF-268 > 100 µM | HT-29 > 100 µM | SR > 100 µM | OVCAR-3 > 100 µM | SW-620 > 100 µM | RXF 393 > 100 µM | OVCAR-8 > 100 µM

CSc1n[n+]2c(s1)SCCC2
inactive: 786-0 > 100 µM | SK-MEL-28 > 100 µM | IGROV-1 25.8 µM | NCI-H460 > 100 µM | UO-31 19.8 µM | SN12C > 100 µM | DLD-1 > 100 µM | ACHN > 100 µM | NCI-H522 26.9 µM | SF-268 80.2 µM | HT-29 > 100 µM | SR > 100 µM | OVCAR-3 > 100 µM | SK-MEL-5 46.5 µM | SW-620 66.1 µM | RXF 393 > 100 µM | OVCAR-8 > 100 µM

C/C(=N\N=C(N)N)c1sc(-c2nc(C)c(/C(C)=N/N=C(N)N)s2)nc1C
inactive: 786-0 > 47.9 µM | SK-MEL-28 > 100 µM | IGROV-1 > 100 µM | NCI-H460 > 62.5 µM | UO-31 > 91 µM | SN12C > 100 µM | DLD-1 > 51.2 µM | ACHN > 100 µM | NCI-H522 36 µM | SF-268 > 100 µM | HT-29 > 66.8 µM | SR > 45.6 µM | OVCAR-3 > 85.5 µM | SK-MEL-5 > 100 µM | SW-620 > 100 µM | RXF 393 > 45.4 µM | OVCAR-8 > 100 µM

CN(CCc1ccccn1)/[N+]([O-])=N/O.CNCCc1ccccn1
inactive: 786-0 > 100 µM | SK-MEL-28 > 100 µM | IGROV-1 > 100 µM | NCI-H460 > 100 µM | UO-31 > 100 µM | SN12C > 100 µM | DLD-1 > 100 µM | ACHN > 100 µM | SF-268 > 100 µM | HT-29 > 100 µM | SR > 100 µM | OVCAR-3 > 100 µM | SK-MEL-5 > 100 µM | SW-620 > 100 µM | RXF 393 > 100 µM | OVCAR-8 > 100 µM

COc1cc2c(cc1OC)[C@H]1C(COC(=O)Nc3ccccc3)CN1CC2 (stereo partly drawn)
inactive: 786-0 > 100 µM | SK-MEL-28 > 100 µM | IGROV-1 > 100 µM | NCI-H460 > 100 µM | UO-31 > 100 µM | SN12C > 100 µM | DLD-1 > 100 µM | ACHN > 100 µM | NCI-H522 > 100 µM | SF-268 > 100 µM | HT-29 74.5 µM | SR 75.3 µM | OVCAR-3 > 100 µM | SK-MEL-5 53.8 µM | SW-620 > 100 µM | RXF 393 58.5 µM | OVCAR-8 > 100 µM

CCCCCCCCCCCCCCCCCC(=O)O[C@H](COC(=O)CCCCCCCCCCC)COC(=O)CCCCCCCCCCCCCCC
inactive: 786-0 > 100 µM | SK-MEL-28 > 100 µM | IGROV-1 > 100 µM | NCI-H460 > 100 µM | UO-31 > 100 µM | SN12C > 100 µM | DLD-1 > 100 µM | ACHN > 100 µM | SF-268 > 100 µM | HT-29 > 100 µM | SR > 100 µM | OVCAR-3 > 100 µM | SK-MEL-5 > 100 µM | SW-620 > 100 µM | OVCAR-8 > 100 µM

CCCCCCCCCCCCCCCCOCC(CN(C)CCN(C)C)OCCCCCCCCCCCCCCCC (stereo not drawn)
inactive: 786-0 > 100 µM | SK-MEL-28 > 100 µM | IGROV-1 > 100 µM | NCI-H460 > 100 µM | UO-31 > 100 µM | SN12C > 100 µM | DLD-1 > 100 µM | ACHN > 100 µM | NCI-H522 > 100 µM | SF-268 > 100 µM | HT-29 > 100 µM | SR > 100 µM | OVCAR-3 > 100 µM | SK-MEL-5 > 100 µM | SW-620 > 100 µM | RXF 393 > 100 µM | OVCAR-8 > 100 µM

Clc1ccc(-n2nnc(C3=NCCN3)c2-c2ccccc2)cc1
inactive: 786-0 > 100 µM | SK-MEL-28 > 100 µM | IGROV-1 > 100 µM | NCI-H460 > 100 µM | UO-31 43.3 µM | SN12C > 100 µM | DLD-1 > 100 µM | ACHN > 100 µM | NCI-H522 > 100 µM | SF-268 > 100 µM | HT-29 > 100 µM | SR > 100 µM | OVCAR-3 > 100 µM | SK-MEL-5 86.9 µM | SW-620 > 100 µM | RXF 393 > 100 µM | OVCAR-8 > 100 µM

O=C(/C=C/c1ccc(O)cc1)c1ccc(O)cc1 [4,4'-DIHYDROXYCHALCONE]
inactive: 786-0 23.2 µM | SK-MEL-28 28.1 µM | IGROV-1 32.1 µM | Hs-578T 27 µM | NCI-H460 26.8 µM | UO-31 22 µM | SN12C 31.2 µM | DLD-1 18 µM | ACHN 23.9 µM | NCI-H522 3.94 µM | SF-268 21.4 µM | HT-29 19.9 µM | SR 9.71 µM | PC-3 28.7 µM | OVCAR-3 22 µM | SK-MEL-5 21.5 µM | SW-620 26.1 µM | RXF 393 22.9 µM | OVCAR-8 16.7 µM | MDA-N 27.4 µM
